{"source": "paper PMC12280724", "about": "(Frontiers in Pharmacology, 2025)", "key": {"[1]": {"experiment": "In vitro stability in human serum at 37 °C", "assay_type": "in vitro ADME", "settings": "at 24 h", "method": "Aliquots (0.2 mL) were withdrawn at predefined intervals and analyzed using a paper chromatographic technique ([Rathmann et al., 2019]). Chromatographic separation was carried out using a Shimadzu system ([Shimadzu Corporation]) (Genzo Shimadzu Sr., Kyoto, Japan), comprising LC-9A pumps, a Rheodyne injector (Model 7125), and an ultraviolet spectrophotometer detector (SPD-6A, Shimadzu). The mobile phase consisted of acetonitrile and water (65:35) containing 0.1% trifluoroacetic acid, delivered at a flow rate of 1.0 mL/min. […] Separated fractions were collected for up to 12 min, and the radiochemical integrity was subsequently evaluated using a well-type NaI(Tl) ([Al Oraini, 2018]) detector linked to a single-channel analyzer."}, "[2]": {"experiment": "In vivo biodistribution of [^99mTc]Tc-carvedilol in healthy Swiss albino mice", "settings": "for [^99mTc]Tc-carvedilol percentages of injected dose per Gram organ: i.v. tail vein", "source_text": "For biodistribution and receptor occupancy studies, 24 healthy adult Swiss albino mice (12 males and 12 females, aged 10–12 weeks, weighing 25–30 g) were obtained from the Egyptian National Research Center. Mice outside the 25–30 g weight range were excluded to ensure consistency in the biodistribution outcomes. Prior to the study, animals were housed in groups of four with ad libitum access to food and water and underwent a 2-week acclimatization period. After this adaptation phase, the mice were randomly assigned to the study groups using the lot-drawing method.\nGiven ^99mTc’s physical half-life of approximately 6 h, shorter imaging and sampling intervals are generally preferred to maximize radioactive signal fidelity and minimize decay-related variability. At 24 h post-injection, the residual ^99mTc activity could fall below quantifiable thresholds, potentially compromising the precision of biodistribution data. To prevent this, all data collection was restricted to early post-injection intervals—specifically […]—when radioactivity levels remain within optimal detection ranges for gamma counting. By omitting the 24 h time point altogether, the study design ensured that the radiotracer signal would be robust enough to yield statistically reliable biodistribution profiles without being confounded by the isotope’s exponential decay. Additionally, prior pilot studies were conducted to empirically determine the time window during which the radiochemical integrity and quantification signal-to-noise ratio remained analytically valid. These informed the exclusion of late-phase sampling and reinforced confidence in the reliability of kinetic data collected within the defined 6 h observation window. Therefore, six mice were euthanized at each selected time point via standardized cervical dislocation performed by trained personnel in accordance with institutional animal care guidelines. The procedure followed the AVMA Guidelines for the Euthanasia of Animals ([Kirkwood, 2013]), ensuring it was rapid, humane, and reproducible. To ensure procedural consistency, all cervical dislocations were performed by the same experienced researcher, following pre-established protocols that involved correct animal positioning, anatomical landmark identification, and verification of death through cessation of heartbeat and respiration. Immediately postmortem, body weight was recorded, and blood was collected via cardiac puncture.\nOrgan harvesting included the collection of the heart, liver, lungs, kidneys, spleen, stomach, intestines, muscle (right leg), bone, and brain. Following dissection, tissues were gently rinsed with isotonic saline to remove residual blood, promptly weighed, kept at low temperatures, and immediately subjected to gamma counting to preserve radiochemical integrity and avoid post-collection decay artifacts. No storage or freezing was used to prevent degradation or leakage of [^99mTc]Tc-carvedilol. Sample processing occurred in a shielded, on-site laboratory adjacent to the dissection area, ensuring minimal delay—typically less than 2 to 3 minutes—between collection and measurement.\nTo ensure methodological rigor and reproducibility, both experimental and computational components of the study were supported by a structured statistical framework. A total of 24 healthy albino mice (12 males, 12 females), aged 10–12 weeks and weighing 25 ± 3 g, were selected based on uniform health status, age, and weight to minimize inter-animal variability. Animals were maintained under controlled laboratory conditions (12-h light/dark cycle, standardized humidity, and temperature) with unrestricted access to food and water. For biodistribution analysis, animals were randomly assigned to four experimental groups, each consisting of six mice, each representing a distinct post-injection time point (15, 30, 60, and 120 min). […]"}}, "note": "Several values for one entry are separate records, joined by “and”; a condition that tells them apart may be missing. Identical values can stand only once. Marks after values point to notes of the source that are not given here.", "data": [{"molecule": "COc1ccccc1OCC[N]1CC(COc2cccc3[nH]c4ccccc4c23)[O][99Tc]12(=[O])[O]C(COc1cccc3[nH]c4ccccc4c13)C[N]2CCOc1ccccc1OC", "note": "(racemic) [[^99mTc]Tc-carvedilol]", "values": [{"measurement": "serum stability", "setting": "[1]", "result": "> 92", "unit": "%"}, {"measurement": "Residual [^99mTc]Tc-carvedilol percentages of injected dose per Gram in non-targeted organs", "setting": "[2]; Blood row, 30 min post-injection", "result": "96.021 ± 0.01", "unit": "% ID/g"}, {"measurement": "Residual [^99mTc]Tc-carvedilol percentages of injected dose per Gram in non-targeted organs", "setting": "[2]; Blood row, 60 min post-injection", "result": "92.710 ± 0.01", "unit": "% ID/g"}, {"measurement": "Residual [^99mTc]Tc-carvedilol percentages of injected dose per Gram in non-targeted organs", "setting": "[2]; Blood row, 120 min post-injection", "result": "94.008 ± 0.02", "unit": "% ID/g"}, {"measurement": "[^99mTc]Tc-carvedilol percentages of injected dose per Gram organ", "setting": "[2]; Blood, 15 min post-injection", "result": "19.895 ± 0.020 ^a % ID/g organ"}, {"measurement": "[^99mTc]Tc-carvedilol percentages of injected dose per Gram organ", "setting": "[2]; Blood, 30 min post-injection", "result": "3.969 ± 0.052", "unit": "% ID/g organ"}, {"measurement": "[^99mTc]Tc-carvedilol percentages of injected dose per Gram organ", "setting": "[2]; Blood, 60 min post-injection", "result": "7.290 ± 0.052", "unit": "% ID/g organ"}, {"measurement": "[^99mTc]Tc-carvedilol percentages of injected dose per Gram organ", "setting": "[2]; Blood, 120 min post-injection", "result": "5.972 ± 0.131", "unit": "% ID/g organ"}, {"measurement": "[^99mTc]Tc-carvedilol percentages of injected dose per Gram organ", "setting": "[2]; Bone, 15 min post-injection", "result": "0.322 ± 0.035", "unit": "% ID/g organ"}, {"measurement": "[^99mTc]Tc-carvedilol percentages of injected dose per Gram organ", "setting": "[2]; Bone, 30 min post-injection", "result": "0.963 ± 0.215", "unit": "% ID/g organ"}, {"measurement": "[^99mTc]Tc-carvedilol percentages of injected dose per Gram organ", "setting": "[2]; Bone, 60 min post-injection", "result": "0.675 ± 0.215", "unit": "% ID/g organ"}, {"measurement": "[^99mTc]Tc-carvedilol percentages of injected dose per Gram organ", "setting": "[2]; Bone, 120 min post-injection", "result": "2.703 ± 0.019", "unit": "% ID/g organ"}, {"measurement": "Residual [^99mTc]Tc-carvedilol percentages of injected dose per Gram in non-targeted organs", "setting": "[2]; Brain row, 15 min post-injection", "result": "99.359 ± 0.01", "unit": "% ID/g"}, {"measurement": "Residual [^99mTc]Tc-carvedilol percentages of injected dose per Gram in non-targeted organs", "setting": "[2]; Brain row, 30 min post-injection", "result": "98.409 ± 0.03", "unit": "% ID/g"}, {"measurement": "Residual [^99mTc]Tc-carvedilol percentages of injected dose per Gram in non-targeted organs", "setting": "[2]; Brain row, 60 min post-injection", "result": "97.103 ± 0.01", "unit": "% ID/g"}, {"measurement": "Residual [^99mTc]Tc-carvedilol percentages of injected dose per Gram in non-targeted organs", "setting": "[2]; Brain row, 120 min post-injection", "result": "99.679 ± 0.02", "unit": "% ID/g"}, {"measurement": "[^99mTc]Tc-carvedilol percentages of injected dose per Gram organ", "setting": "[2]; Brain, 15 min post-injection", "result": "0.631 ± 0.020", "unit": "% ID/g organ"}, {"measurement": "[^99mTc]Tc-carvedilol percentages of injected dose per Gram organ", "setting": "[2]; Brain, 30 min post-injection", "result": "1.561 ± 0.008", "unit": "% ID/g organ"}, {"measurement": "[^99mTc]Tc-carvedilol percentages of injected dose per Gram organ", "setting": "[2]; Brain, 60 min post-injection", "result": "2.895 ± 0.391", "unit": "% ID/g organ"}, {"measurement": "[^99mTc]Tc-carvedilol percentages of injected dose per Gram organ", "setting": "[2]; Brain, 120 min post-injection", "result": "0.301 ± 0.110", "unit": "% ID/g organ"}, {"measurement": "Residual [^99mTc]Tc-carvedilol percentages of injected dose per Gram in non-targeted organs", "setting": "[2]; Heart row, 15 min post-injection", "result": "72.467 ± 0.02 ^a % ID/g"}, {"measurement": "Residual [^99mTc]Tc-carvedilol percentages of injected dose per Gram in non-targeted organs", "setting": "[2]; Heart row, 30 min post-injection", "result": "92.707 ± 0.02", "unit": "% ID/g"}, {"measurement": "Residual [^99mTc]Tc-carvedilol percentages of injected dose per Gram in non-targeted organs", "setting": "[2]; Heart row, 60 min post-injection", "result": "97.838 ± 0.03", "unit": "% ID/g"}, {"measurement": "Residual [^99mTc]Tc-carvedilol percentages of injected dose per Gram in non-targeted organs", "setting": "[2]; Heart row, 120 min post-injection", "result": "96.414 ± 0.07", "unit": "% ID/g"}, {"measurement": "[^99mTc]Tc-carvedilol percentages of injected dose per Gram organ", "setting": "[2]; Heart, 15 min post-injection", "result": "27.533 % ID/g organ and 27.533 ± 0.931 % ID/g organ and 27.533 ± 0.931 ^a % ID/g organ"}, {"measurement": "[^99mTc]Tc-carvedilol percentages of injected dose per Gram organ", "setting": "[2]; Heart, 30 min post-injection", "result": "7.273 ± 0.006", "unit": "% ID/g organ"}, {"measurement": "[^99mTc]Tc-carvedilol percentages of injected dose per Gram organ", "setting": "[2]; Heart, 60 min post-injection", "result": "2.161 ± 0.006", "unit": "% ID/g organ"}, {"measurement": "[^99mTc]Tc-carvedilol percentages of injected dose per Gram organ", "setting": "[2]; Heart, 120 min post-injection", "result": "3.516 ± 0.110", "unit": "% ID/g organ"}, {"measurement": "Residual [^99mTc]Tc-carvedilol percentages of injected dose per Gram in non-targeted organs", "setting": "[2]; Intestines row, 15 min post-injection", "result": "95.435 ± 0.09", "unit": "% ID/g"}, {"measurement": "Residual [^99mTc]Tc-carvedilol percentages of injected dose per Gram in non-targeted organs", "setting": "[2]; Intestines row, 30 min post-injection", "result": "96.612 ± 0.03", "unit": "% ID/g"}, {"measurement": "Residual [^99mTc]Tc-carvedilol percentages of injected dose per Gram in non-targeted organs", "setting": "[2]; Intestines row, 60 min post-injection", "result": "92.604 ± 0.04", "unit": "% ID/g"}, {"measurement": "Residual [^99mTc]Tc-carvedilol percentages of injected dose per Gram in non-targeted organs", "setting": "[2]; Intestines row, 120 min post-injection", "result": "94.643 ± 0.01", "unit": "% ID/g"}, {"measurement": "[^99mTc]Tc-carvedilol percentages of injected dose per Gram organ", "setting": "[2]; Intestines, 15 min post-injection", "result": "4.507 ± 0.521", "unit": "% ID/g organ"}, {"measurement": "[^99mTc]Tc-carvedilol percentages of injected dose per Gram organ", "setting": "[2]; Intestines, 30 min post-injection", "result": "3.358 ± 0.792", "unit": "% ID/g organ"}, {"measurement": "[^99mTc]Tc-carvedilol percentages of injected dose per Gram organ", "setting": "[2]; Intestines, 60 min post-injection", "result": "7.355 ± 0.792", "unit": "% ID/g organ"}, {"measurement": "[^99mTc]Tc-carvedilol percentages of injected dose per Gram organ", "setting": "[2]; Intestines, 120 min post-injection", "result": "5.347 ± 0.521", "unit": "% ID/g organ"}, {"measurement": "Residual [^99mTc]Tc-carvedilol percentages of injected dose per Gram in non-targeted organs", "setting": "[2]; Kidneys row, 30 min post-injection", "result": "67.207 ± 0.04 ^a % ID/g"}, {"measurement": "Residual [^99mTc]Tc-carvedilol percentages of injected dose per Gram in non-targeted organs", "setting": "[2]; Kidneys row, 60 min post-injection", "result": "75.608 ± 0.01", "unit": "% ID/g"}, {"measurement": "Residual [^99mTc]Tc-carvedilol percentages of injected dose per Gram in non-targeted organs", "setting": "[2]; Kidneys row, 120 min post-injection", "result": "70.660 ± 0.05", "unit": "% ID/g"}, {"measurement": "[^99mTc]Tc-carvedilol percentages of injected dose per Gram organ", "setting": "[2]; Kidneys, 15 min post-injection", "result": "2.764 ± 0.012", "unit": "% ID/g organ"}]}]}
